Assay results taken from paper PMC10380194, “Conferring High IAA Productivity on Low-IAA-Producing Organisms with PonAAS2, an Aromatic Aldehyde Synthase of a Galling Sawfly, and Identification of Its Inhibitor” (Insects, 2023).

How the values were obtained:
PonAAS2 = molecular target: T1, PonAAS2; test: enzyme inhibition of Trp→IAAld conversion, Lineweaver-Burk kinetics (IC50 […]); type: biochemical, Pontania sp.
T1 construct: recombinant, fusion protein with trigger factor (pCOLD TF)

PonAAS1 = molecular target: T2, PonAAS1; test: enzyme inhibition of 5-HTrp→serotonin conversion, dose-response; type: biochemical, Pontania sp.
T2 construct: recombinant, fusion protein with trigger factor (pCOLD TF)

## Oc1ccccc1-c1nc(-c2ccc3c(c2)CCO3)n[nH]1 [HTS10550, 2-[3-(2,3-dihydro-1-benzofuran-5-yl)-1H-1,2,4-triazol-5-yl]phenol]
PonAAS2
  Ki: 0.2 µM
PonAAS1
  IC50: ~20 µM
